Test results: ChEMBL document CHEMBL3392922, “MMV box screening in the Dd2 P. falciparum strain”

tested on: Plasmodium falciparum; assay: MMV: IC50 determined against P. falciparum Dd2-luc strain using a Malaria Sybr Green I Fluorescence assay. Starting conditions were 1% trophozoite synchronised parasites at 2% haematocrit. Fluorescence detection completed after 48hr incubation at 37 degrees C under 1% O2, 3% CO2 and balance N2.; format: functional, organism-based; settings: Dd2, 48 h

`CCN1CCCC1CNc1[nH]cnc2c3cc(Cl)ccc3nc1-2` (stereo not drawn) and `O=C(NC1CCN(Cc2ccccc2)CC1)c1cc(-c2ccncc2)nc2ccc(Cl)cc12` are within 1.5-fold of each other in IC50: 1450 nM for the first, 1480 nM for the second.

`CCOc1cc(CNC(C)C(O)c2ccccc2)cc(Cl)c1OCC` (stereo not drawn) and `CCOc1c(Cl)cc(CNCC(O)c2ccccc2)cc1OC` (stereo not drawn) are within 1.5-fold of each other in IC50: 1910 nM for the first, 1300 nM for the second.

`Nc1nc(Nc2cccc(F)c2)nc2ccccc12` and `Cc1cccc(Nc2nc(N)c3ccccc3n2)c1` are within 1.5-fold of each other in IC50: 2370 nM for the first, 3500 nM for the second.

First: COc1ccc2nc(C)cc(Nc3ccccc3O)c2c1
Second: COc1cccc(Nc2nc(N)c3ccccc3n2)c1
The IC50 of the first is 2.8-fold lower: 1100 nM for the first, 3110 nM for the second.

First: Cc1cc(C)cc(Nc2cc(C)nc3nc(C(F)(F)F)nn23)c1
Second: Cc1cc(Nc2ccc(Cl)cc2)n2nc(C(F)(F)F)nc2n1
The IC50 of the first is 2.2-fold lower: 137 nM for the first, 302 nM for the second. The first is the more potent here.

Going from `CCn1nc(-c2ccc(C(=O)OC)cc2)nc2c(=O)n(C)c(=O)nc1-2` to `CCN1CCN(c2cc(C)c3cc(NC(=O)c4ccc(OC)c(OC)c4)ccc3n2)CC1`, the IC50 rises from 691 nM to 1850 nM (2.7-fold). The first is the more potent here.

`CCOc1ccccc1CN1CCc2nc3cc(C(C)(C)C)nn3c(O)c2C1` and `Oc1c2c(nc3cc(-c4ccccc4)nn13)CCCC2` are within 1.5-fold of each other in IC50: 1220 nM for the first, 1560 nM for the second.

Going from `O=C(NC1CCN(Cc2ccccc2)CC1)c1cc2nc(-c3ccc(Cl)s3)cc(C(F)(F)F)n2n1` to `O=C(NC1CCN(Cc2ccccc2)CC1)c1cc(-c2cccnc2)nc2ccc(Cl)cc12`, the IC50 falls from 5170 nM to 1220 nM (4.2-fold). The second is the more potent here.

Compared with `Cc1sc(NC(=O)c2ccco2)c(C(c2cccnc2)N2CCC(Cc3ccccc3)CC2)c1C` (stereo not drawn), `O=C(Nc1ccc(N2CCN(Cc3ccccc3)CC2)cc1)c1cccs1` is 1.8-fold lower in IC50: 1340 nM for the first, 742 nM for the second.

`Cc1cc(N2CCCC2)nc(Nc2ccc(NC(=O)CCc3ccccc3)cc2)n1` and `Cc1cc(N(C)C)nc(Nc2ccc(NC(=O)Nc3ccccc3)cc2)n1` are within 1.5-fold of each other in IC50: 1260 nM for the first, 973 nM for the second.

`O=C(NCC(c1ccsc1)N1CCCCCC1)c1ccc(C(F)(F)F)cc1` (stereo not drawn) and `COc1ccc(N2CCN(C(CNC(=O)C3CCCCC3)c3ccc4c(c3)OCO4)CC2)cc1` (stereo not drawn) are within 1.5-fold of each other in IC50: 467 nM for the first, 569 nM for the second.

Going from `Cc1cc(NC(=O)c2cccc(C(F)(F)F)c2)n(-c2nc(-c3ccc4c(c3)OCO4)cs2)n1` to `Cc1cc(NC(=O)c2ccc(-c3ccccc3)cc2)no1`, the IC50 falls from 2180 nM to 775 nM (2.8-fold).

First: O=C(CCc1ccccc1)c1ccccc1OCC(O)CN1CCCCC1 (stereo not drawn)
Second: OC(CNC1CCCCC1)Cn1c2ccccc2c2ccccc21 (stereo not drawn)
The IC50 of the first is 3.9-fold higher: 1090 nM for the first, 278 nM for the second. The second is the more potent here.

Compared with `CCCCCC(=O)N1c2ccccc2N=C2CC(c3ccc(OC)c(OC)c3)CC(O)=C2C1c1ccc(C(F)(F)F)cc1` (stereo not drawn), `CC(C)(C)c1ccc(C2CC3=Nc4ccccc4N(C(=O)c4ccccc4Cl)C(c4ccc(F)cc4)C3=C(O)C2)cc1` (stereo not drawn) is 11-fold higher in IC50: 179 nM for the first, 1990 nM for the second. The first is the more potent here.

Going from `Cc1cc(Nc2ccc3ccccc3c2)n2ncnc2n1` to `Cc1ccc(Nc2nc(N)c3ccccc3n2)cc1Cl`, the IC50 rises from 156 nM to 1100 nM (7.1-fold). The first is the more potent here.

Going from `COc1ccc(-n2ccnc2SCC(=O)Nc2cc(C)ccc2C)c(OC)c1` to `COc1ccc(C(=O)Nc2ccc3nc(N4CCCCC4)cc(C)c3c2)cc1OC`, the IC50 rises from 351 nM to 614 nM (1.7-fold).

Compared with `CCN1CCN(Cc2ccc(NC(=O)c3cc4ccc5cccnc5c4[nH]3)cc2)CC1`, `CC1CCN(Cc2ccc(NC(=O)c3cc4ccc5cccnc5c4[nH]3)cc2)CC1` is 2.7-fold lower in IC50: 665 nM for the first, 242 nM for the second.

`COc1cccc(Nc2nc(NCCO)c3ccccc3n2)c1` and `COc1cccc(C(=O)Nc2ccc(-c3nc4ccccc4[nH]3)cc2)c1` are within 1.5-fold of each other in IC50: 885 nM for the first, 832 nM for the second.

Going from `COCCNCC(O)Cn1c2ccc(Cl)cc2c2cc(Cl)ccc21` (stereo not drawn) to `COc1cc(CNCCc2ccc(Cl)cc2)cc(OC)c1O`, the IC50 rises from 652 nM to 1870 nM (2.9-fold). The first is the more potent here.

Compared with `CCC(O)c1ccc(Br)cc1NC(=O)c1cccc(Cl)c1` (stereo not drawn), `COc1ccc(-c2nonc2NC(=O)c2cccc(Cl)c2)cc1OC` is 1.9-fold higher in IC50: 701 nM for the first, 1330 nM for the second.

Going from `CN(C)CCCNCc1ccc(-c2ccc(F)c(Cl)c2)o1` to `Clc1cc(Br)ccc1-c1ccc(CNCC2CCNCC2)o1`, the IC50 falls from 1160 nM to 596 nM (1.9-fold).

Going from `Cn1c(=O)c2cc(C(=O)NCCCN3CCCCCC3)sc2c2ccccc21` to `O=C(NCCCN1CCC(N2CCCCC2)CC1)C1=Cc2cc(Br)ccc2OC1`, the IC50 rises from 366 nM to 965 nM (2.6-fold). The first is the more potent here.

First: Cc1[nH]c(-c2ccc(F)cc2)cc1C(=O)NC1CCN(Cc2ccccc2)CC1
Second: CCN(Cc1ccccc1)C1CCN(Cc2cc(Br)ccc2O)CC1
The IC50 of the first is 2.8-fold higher: 1670 nM for the first, 603 nM for the second. The second is the more potent here.

`Cc1sc2ncnc(Sc3nc4ccccc4[nH]3)c2c1C` and `CCOc1cccc(C(=O)Nc2ccc(-c3nc4ccccc4[nH]3)cc2)c1` are within 1.5-fold of each other in IC50: 844 nM for the first, 1210 nM for the second.

Compared with `CCOc1cc2c(cc1OCC)C(c1cc(OC)c(O)cc1Cl)NCC2` (stereo not drawn), `COc1cc2c(cc1OC)C1=NNC(=O)C1=NC(C)(C)C2` is 6.1-fold higher in IC50: 120 nM for the first, 732 nM for the second. The first is the more potent here.

Going from `CC1CN(C(=O)c2sc3ccccc3c2Cl)CC(C)O1` (stereo not drawn) to `CC(C)(C)c1ccc(C(=O)Nc2nc3ccccc3s2)cc1`, the IC50 rises from 104 nM to 4150 nM (40-fold). The first is the more potent here.

`CCC(=O)Nc1nnc(Cc2ccc(OC)c(OC)c2)s1` and `CC(=O)Nc1nnc(SCc2c(C)cc(C(C)(C)C)cc2C)s1` are within 1.5-fold of each other in IC50: 704 nM for the first, 794 nM for the second.

Compared with `Oc1ccccc1CN1CCN(C(c2ccccc2)c2ccccc2)CC1`, `CCn1c(CN2CCN(Cc3ccccc3)CC2)nc2cc(NC(=O)c3cccs3)ccc21` is 2-fold lower in IC50: 959 nM for the first, 468 nM for the second. The second is the more potent here.

First: c1ccc2c(NCCCCCCNc3c4c(nc5ccccc35)CCCC4)c3c(nc2c1)CCCC3
Second: Cc1ccc(Cl)cc1N1CCN(CCCNC(=O)C2CCN(c3nc4ccccc4[nH]3)CC2)CC1
The IC50 of the first is 2.4-fold lower: 545 nM for the first, 1300 nM for the second. The first is the more potent here.

Compared with `CCC1(C)CC(CCNCc2ccccc2O)(c2ccc(C)cc2)CCO1` (stereo not drawn), `Oc1ccccc1CNCC12CC3CC(CC(C3)C1)C2` is 2-fold higher in IC50: 141 nM for the first, 283 nM for the second.

First: O=C(NC1CCN(Cc2ccccc2)CC1)c1cc(C(=O)NC2CCN(Cc3ccccc3)CC2)cc(C(=O)NC2CCN(Cc3ccccc3)CC2)c1
Second: Cc1ccc(-c2nc3ccccc3o2)cc1NCc1cc(Cc2ccccc2)ccc1O
The IC50 of the first is 6.4-fold lower: 264 nM for the first, 1700 nM for the second. The first is the more potent here.

Going from `Fc1ccc2[nH]c3c(NCCCN4CCOCC4)ncnc3c2c1` to `O=C(Nc1ccc(CN2CCOCC2)cc1)c1ccc(-c2cc(Cl)ccc2Cl)o1`, the IC50 rises from 335 nM to 1740 nM (5.2-fold).

Going from `CCOc1ccc(C2N(C)c3ccccc3N2C)cc1` to `COc1ccc(C2C(C(=O)Nc3cccc(OC)c3)c3ccccc3C(=O)N2C2CCCCC2)cc1` (stereo not drawn), the IC50 rises from 904 nM to 2340 nM (2.6-fold). The first is the more potent here.

First: Nc1ccc(-c2nc3cc(Oc4ccc(Oc5ccc6[nH]c(-c7ccc(N)cc7)nc6c5)cc4)ccc3[nH]2)cc1
Second: COc1cc(-c2nc(-c3ccccc3)c(-c3ccccc3)[nH]2)cc(OC)c1O
The IC50 of the first is 4.9-fold lower: 315 nM for the first, 1540 nM for the second. The first is the more potent here.

Going from `Cc1ccc(C)c(Cn2c(N3CCC(C(=O)NCc4cccs4)CC3)nc3ccccc32)c1` to `CCOC(=O)C1CCN(C(=O)CN2C(=O)c3ccccc3C2c2c[nH]c3ccccc23)CC1` (stereo not drawn), the IC50 falls from 1160 nM to 512 nM (2.3-fold). The second is the more potent here.

First: CCN(CC)c1ccc(NC(=O)c2cccs2)cc1
Second: CCN(CC)S(=O)(=O)c1ccc(-c2csc(Nc3ccc(C)c(C)c3)n2)cc1
The IC50 of the first is 1.8-fold lower: 514 nM for the first, 933 nM for the second. The first is the more potent here.

First: COc1cccc(-c2nn(C)c3sc(C(=O)NCCN4CCN(c5ccccc5F)CC4)cc23)c1
Second: CCN1CCN(c2c(C(=O)c3ccccc3)cnc3cc(OC)c(OC)cc23)CC1
The IC50 of the first is 1.7-fold lower: 1910 nM for the first, 3340 nM for the second. The first is the more potent here.

Compared with `CNCCCNc1ccnc2cc(Cl)ccc12`, `COc1ccccc1CNC(=O)CCn1c(=O)[nH]c2ccsc2c1=O` is 2.2-fold higher in IC50: 437 nM for the first, 977 nM for the second. The first is the more potent here.

Going from `O=C(Nc1ccc(N2CCCCC2)c(Cl)c1)c1ccc(Br)o1` to `O=C(Nc1cccc(C2=NCCN2)c1)Nc1cccc(C2=NCCN2)c1` [IMIDOCARB], the IC50 falls from 559 nM to 332 nM (1.7-fold). The second is the more potent here.

`Cc1cc(C)c2nc(N3CCC(C(=O)NCCCN4CCC(N5CCCCC5)CC4)CC3)sc2c1` and `CCCn1c(=N)c(C(=O)NC2CCCCC2)cc2c(=O)n3cccc(C)c3nc21` are within 1.5-fold of each other in IC50: 1280 nM for the first, 1640 nM for the second.

First: COc1cc(SC)ccc1C(=O)N1CCCC(C)C1 (stereo not drawn)
Second: CN(C)c1ccc(N=Cc2ccc(N3CCOCC3)cc2)cc1
The IC50 of the first is 11-fold higher: 3950 nM for the first, 345 nM for the second.

For `CN(C)c1ccc(C(O)(c2ccc(N(C)C)cc2)c2ccc(N(C)C)cc2)cc1` [METHYLROSANILINE], the IC50 was 218 nM.
